“Also recorded” adds a separate entry of the source. One block for each molecule: values may come before it.
Key:
trigeminal neurons [1] = assay: Fluo-3 calcium imaging of cultured mouse trigeminal neurons; settings: 1 μM PGE2 + modulator: SC-51089 10 μM, U73122 3 μM, U73343 3 μM, BIM 1 μM, chelerythrine 1 μM, H-89 10 μM
hTRPA1 = target: T1, hTRPA1 (Homo sapiens, UniProt O75762); assay: Fluo-3 calcium imaging of hTRPA1-transfected HEK293T cells; type: cell-based; settings: for elevation of intracellular calcium levels in hTRPA1-expressing cells: 1 mM acetaldehyde, 300 μM cinnamaldehyde, 10 mM acetic acid, 1% methanol, 1% ethanol; for suppression of acetaldehyde-evoked intracellular calcium influx (hTRPA1): 1 mM acetaldehyde + 2 mM camphor or 10 μM ruthenium red, n=12
T1 construct: expressed in transfected cells; host or cells: HEK293T (ATCC CRL-11268), pcDNA3.1
T1 sequence (O75762 whole entry): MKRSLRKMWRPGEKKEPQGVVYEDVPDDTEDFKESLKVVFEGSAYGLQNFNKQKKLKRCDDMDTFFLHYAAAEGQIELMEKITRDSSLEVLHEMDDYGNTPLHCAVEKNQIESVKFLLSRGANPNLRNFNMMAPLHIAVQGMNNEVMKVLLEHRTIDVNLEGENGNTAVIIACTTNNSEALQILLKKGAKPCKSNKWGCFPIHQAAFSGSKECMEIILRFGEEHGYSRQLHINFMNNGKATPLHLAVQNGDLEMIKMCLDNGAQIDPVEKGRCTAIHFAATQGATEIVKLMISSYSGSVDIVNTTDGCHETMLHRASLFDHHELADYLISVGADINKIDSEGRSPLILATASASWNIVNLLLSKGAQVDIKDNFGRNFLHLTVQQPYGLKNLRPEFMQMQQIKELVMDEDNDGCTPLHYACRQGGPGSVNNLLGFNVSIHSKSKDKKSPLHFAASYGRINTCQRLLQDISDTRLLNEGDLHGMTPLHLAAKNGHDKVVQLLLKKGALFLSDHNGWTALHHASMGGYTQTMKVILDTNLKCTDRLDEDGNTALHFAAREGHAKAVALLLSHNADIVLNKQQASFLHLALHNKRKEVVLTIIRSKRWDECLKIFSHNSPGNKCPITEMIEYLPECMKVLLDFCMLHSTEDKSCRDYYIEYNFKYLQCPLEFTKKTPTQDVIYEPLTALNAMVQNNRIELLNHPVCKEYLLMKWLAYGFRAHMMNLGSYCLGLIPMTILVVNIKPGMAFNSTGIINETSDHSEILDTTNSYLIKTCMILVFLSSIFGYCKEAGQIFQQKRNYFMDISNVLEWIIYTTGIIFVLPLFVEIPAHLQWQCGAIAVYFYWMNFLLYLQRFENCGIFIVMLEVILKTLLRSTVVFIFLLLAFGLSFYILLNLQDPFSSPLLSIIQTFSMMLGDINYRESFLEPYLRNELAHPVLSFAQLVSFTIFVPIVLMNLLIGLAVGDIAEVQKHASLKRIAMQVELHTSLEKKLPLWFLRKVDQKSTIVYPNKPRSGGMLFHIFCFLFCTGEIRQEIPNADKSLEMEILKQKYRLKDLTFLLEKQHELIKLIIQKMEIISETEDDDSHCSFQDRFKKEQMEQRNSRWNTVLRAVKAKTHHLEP
Procedure: (§1) Particularly, the HEK293T cell line was transiently transfected with individual TRP channel plasmid (pcDNA3.1 containing polynucleotide encoding hTRPA1, rTRPV2, rTRPV1 or mTRPV4; pcDNA5/FRT containing polynucleotide encoding mTRPA1, hTRPV3 or mTRPM8) 3 μg per 35-mm dish and 600 ng/well of pcDNA3 (Invitrogen Corp., USA; containing green fluorescent protein (GFP) cDNA) using Fugene6 (Roche Diagnostics, USA) according to manufacturer's instruction. The transformed cells were cultured in DMEM/F12 containing 10% FBS and 1% penicillin/streptomycin in a CO2 incubator for 24 hours. The cells were replated onto poly-L-lysine-coated glass coverslips, followed by further culture for 10-24 hours.
(§2) Stock solutions were made using water or ethanol, and were diluted with test solutions before use.
(§3) Calcium imaging was performed with a confocal microscope (LSM5 Pascal, Carl Zeiss, Germany), and time-lapse images (488 nm excitation/514 nm emission) were collected every 3 seconds using Carl Zeiss ratio tool software (Carl Zeiss, Germany).
as §2

TRPA1 = assay: Whole-cell voltage-clamp recording of TRPA1 transfected cell line; type: cell-based
Procedure: as §1, §2
This experiment was repeated 5 times.

ICR mice = assay: Acute hindpaw licking/flicking behavioral analysis; settings: for suppression of cinnamaldehyde-evoked licking/flicking behaviors: 10 mM cinnamaldehyde, 100 μM or 1 mM GdCl3, intradermal; for suppression of cinnamaldehyde-evoked licking/flicking behaviors / suppression of acetaldehyde-evoked licking/flicking behaviors: 10 mM camphor; for suppression of acetaldehyde-evoked licking/flicking behaviors: 100 mM acetaldehyde, 1 mM ruthenium red, 100 μM or 1 mM GdCl3 injected 5 min prior
Procedure: This analysis was performed in accordance with protocols approved by the University Committee on Laboratory Animals. Mice were acclimated for 1 h to the test environment prior to experiments. Drugs dissolved in vehicle (PBS containing 0.5% Tween 80) were injected into mice right hindpaws intradermally.

trigeminal neurons [2] = assay: Whole-cell voltage-clamp recording of cultured trigeminal neurons; type: cell-based, mouse; settings: 1 mM acetaldehyde, co-application of 20 μM GdCl3 and 2 mM camphor
Procedure: Trigeminal ganglia were dissected out of decapitated adult ICR mice in cold PBS and treated with 1.5 mg/Ml of collagenase/dispase (Roche Diagnostics, USA) at 37 °C for 45 min, and then treated with 0.25% trypsin (Invitrogen, USA) for 15 min. The trigeminal neurons prepared thereby were then plated onto poly-L-lysine-coated coverslips in DMEM/F12 containing 10% FBS, 1% penicillin/streptomycin and 5 ng/Ml of 2.5S NGF (Invitrogen, USA), nerve growth factor (Invitrogen), followed by culture in a CO2 incubator for 48-72 hours.
Particularly, the extracellular solution (140 mM NaCl, 5 mM KCl, 2 mM CaCl2, 1 mM MgCl2, 10 mM HEPES; titrated to pH 7.4 with NaOH) and the pipette solution (140 mM CsCl, 5 mM EGTA, 10 mM HEPES, 2.0 mM MgATP, 0.2 mM NaGTP; titrated to pH 7.2 with CsOH) were used. The potential was holded at −60 mV for 250 ms, voltage-ramp pulsed from −80 mV to +80 mV for […] and returned to −60 mV for 250 ms, which was repeated without intersweep. This experiment was repeated 5 times.
The trigeminal neurons prepared by the same manner as described in Example 2 were delayed-treated with 1 mM acetaldehyde, followed by treatment of 20 μM GdCl3 (a TRPA1 blocker gadolinium; Sigma-Aldrich, USA) and 2 mM camphor. Then, whole-cell voltage-clamp recording was performed by the same manner as described in Example <5-2>.

mTRPA1 = target: T2, mTRPA1 (Mus musculus, UniProt Q8BLA8); assay: Fluo-3 calcium imaging of mTRPA1-transfected HEK293T cells; type: cell-based; settings: 1 mM acetaldehyde + 2 mM camphor or 10 μM ruthenium red, n=21
T2 construct: expressed in transfected cells; host or cells: HEK293T (ATCC CRL-11268), pcDNA5/FRT
T2 sequence (Q8BLA8 whole entry): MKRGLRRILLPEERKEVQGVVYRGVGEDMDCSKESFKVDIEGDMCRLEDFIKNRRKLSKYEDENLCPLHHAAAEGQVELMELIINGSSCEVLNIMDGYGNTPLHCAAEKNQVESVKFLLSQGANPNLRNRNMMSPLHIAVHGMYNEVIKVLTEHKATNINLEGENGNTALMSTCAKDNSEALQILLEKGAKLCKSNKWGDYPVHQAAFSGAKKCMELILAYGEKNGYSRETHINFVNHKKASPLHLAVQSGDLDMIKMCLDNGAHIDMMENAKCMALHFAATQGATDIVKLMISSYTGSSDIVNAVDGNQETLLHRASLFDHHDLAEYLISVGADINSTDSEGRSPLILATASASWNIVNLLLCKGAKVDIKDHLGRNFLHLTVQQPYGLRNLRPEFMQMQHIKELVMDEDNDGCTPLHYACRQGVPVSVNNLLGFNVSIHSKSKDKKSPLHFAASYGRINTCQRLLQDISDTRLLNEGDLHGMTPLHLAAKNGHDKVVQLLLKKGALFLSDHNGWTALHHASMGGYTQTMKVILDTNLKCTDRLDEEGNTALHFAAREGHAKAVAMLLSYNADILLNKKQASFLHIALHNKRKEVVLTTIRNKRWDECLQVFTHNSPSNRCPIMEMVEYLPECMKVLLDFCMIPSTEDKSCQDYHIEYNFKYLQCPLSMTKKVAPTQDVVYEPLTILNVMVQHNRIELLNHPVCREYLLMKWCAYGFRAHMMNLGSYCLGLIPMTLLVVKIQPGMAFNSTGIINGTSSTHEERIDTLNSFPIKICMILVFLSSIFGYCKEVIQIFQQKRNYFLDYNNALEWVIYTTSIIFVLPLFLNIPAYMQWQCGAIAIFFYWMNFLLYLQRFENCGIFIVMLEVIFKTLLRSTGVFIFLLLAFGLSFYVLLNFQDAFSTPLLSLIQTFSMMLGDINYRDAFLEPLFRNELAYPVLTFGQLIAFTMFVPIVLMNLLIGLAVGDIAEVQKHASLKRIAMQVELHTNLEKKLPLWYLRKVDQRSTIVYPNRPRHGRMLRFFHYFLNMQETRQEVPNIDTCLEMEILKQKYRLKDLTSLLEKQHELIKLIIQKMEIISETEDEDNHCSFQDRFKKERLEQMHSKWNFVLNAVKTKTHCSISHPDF
Procedure: as §1, §3, §2

Molecule: SC-51089
- suppression of the PGE2-induced potentiation of acetaldehyde responses (trigeminal neurons [1]): significantly suppressed

Molecule: O=CC=Cc1ccccc1 [cinnamaldehyde]
- elevation of intracellular calcium levels in hTRPA1-expressing cells (hTRPA1): TRPA1-specific responses; also recorded: responded
- whole-cell current response in TRPA1 expressing cells (TRPA1; 1 mM acetaldehyde, 300 μM cinnamaldehyde, voltage ramp -80 to +80 mV, n=5): responsive
- acute hindpaw licking/flicking behavior elicited (ICR mice; intradermal into hindpaw, 10 μl, 100 mM acetaldehyde or 10 mM cinnamaldehyde, 10 min, n=5): time spent in licking/flicking behaviors increased

Molecule: CCO [ethanol]
- elevation of intracellular calcium levels in hTRPA1-expressing cells (hTRPA1): failed to elevate intracellular calcium levels

Molecule: [Cl][Gd]([Cl])[Cl] [GdCl3]
- suppression of nociceptive behaviors at a micromolar dose (ICR mice; 100 μM GdCl3, intradermal): significantly suppress
- suppression of cinnamaldehyde-evoked licking/flicking behaviors (ICR mice): suppressed
- suppression of acetaldehyde-evoked licking/flicking behaviors (ICR mice; intradermal): suppressed
- inhibition of acetaldehyde-evoked current in trigeminal neurons (trigeminal neurons [2]): inhibited

- suppression of acetaldehyde-evoked intracellular calcium influx (hTRPA1) (hTRPA1): completely suppressed
- suppression of acetaldehyde-evoked intracellular calcium influx (mTRPA1) (mTRPA1): suppressed
Molecule: CC12CCC(CC1=O)C2(C)C (stereo not drawn) [camphor]
- inhibition of acetaldehyde-evoked current in TRPA1 expressing cells (TRPA1; 1 mM acetaldehyde + 2 mM camphor): inhibited
- suppression of cinnamaldehyde-evoked licking/flicking behaviors (ICR mice): suppressed
- duration of suppressive effect on PGE2-potentiated sensitization (ICR mice; 100 mM acetaldehyde + 1 μM PGE2 + 10 mM camphor): 8 min
- suppression of the effect of co-injection of acetaldehyde and PGE2 (ICR mice; 100 mM acetaldehyde + 1 μM PGE2 + 10 mM camphor, intradermal): suppressed
- suppression of acetaldehyde-evoked licking/flicking behaviors (ICR mice; intradermal): suppressed
- inhibition of acetaldehyde-evoked current in trigeminal neurons (trigeminal neurons [2]): inhibited

Molecule: bisindolmaleimide [BIM]
- suppression of the PGE2-induced potentiation of acetaldehyde responses (trigeminal neurons [1]): significantly suppressed

Molecule: O=S(=O)(NCCNC/C=C/c1ccc(Br)cc1)c1cccc2cnccc12 [H-89]
- suppression of the PGE2-induced potentiation of acetaldehyde responses (trigeminal neurons [1]): did not suppress

Molecule: COc1ccc2c(c[n+](C)c3c4cc5c(cc4ccc23)OCO5)c1OC [chelerythrine]
- suppression of the PGE2-induced potentiation of acetaldehyde responses (trigeminal neurons [1]): significantly suppressed

Molecule: COc1ccc2c(c1)CC[C@@H]1[C@@H]2CC[C@]2(C)[C@@H](NCCCCCCN3C(=O)CCC3=O)CC[C@@H]12 [U73343]
- suppression of the PGE2-induced potentiation of acetaldehyde responses (trigeminal neurons [1]): did not suppress

Molecule: CC(=O)O [acetic acid]
- elevation of intracellular calcium levels in hTRPA1-expressing cells (hTRPA1): failed to elevate intracellular calcium levels

Molecule: COc1ccc2c(c1)CC[C@@H]1[C@@H]2CC[C@]2(C)[C@@H](NCCCCCCN3C(=O)C=CC3=O)CC[C@@H]12 [U73122]
- suppression of the PGE2-induced potentiation of acetaldehyde responses (trigeminal neurons [1]): significantly suppressed

Molecule: CO [methanol]
- elevation of intracellular calcium levels in hTRPA1-expressing cells (hTRPA1): failed to elevate intracellular calcium levels

- suppression of acetaldehyde-evoked intracellular calcium influx (hTRPA1) (hTRPA1): so did; also recorded: suppressed
- suppression of acetaldehyde-evoked intracellular calcium influx (mTRPA1) (mTRPA1): suppressed
Molecule: N.N.N.N.N.N.N.N.N.N.N.N.N.N.[Cl-].[Cl-].[Cl-].[Cl-].[Cl-].[Cl-].[O-2].[O-2].[Ru+3].[Ru+3].[Ru+4] [ruthenium red]
- suppression of acetaldehyde-evoked licking/flicking behaviors (ICR mice; intradermal): suppressed

— patent US7960130B2, “Method for activation of transient receptor potential cation channel, subfamily A, member 1 using acetaldehyde” (Korea University Industry and Academy Cooperation Foundation, priority 2008, dated 2011)
